The source of these data is ChEMBL document CHEMBL1153145, “Novel lead for potent inhibitors of breast cancer resistance protein (BCRP)” (Bioorg Med Chem Lett, 2010).

For assay [1], the target named is T1, Broad substrate specificity ATP-binding cassette transporter ABCG2 (Homo sapiens, UniProt Q9UNQ0).
T1 sequence (Q9UNQ0 whole entry): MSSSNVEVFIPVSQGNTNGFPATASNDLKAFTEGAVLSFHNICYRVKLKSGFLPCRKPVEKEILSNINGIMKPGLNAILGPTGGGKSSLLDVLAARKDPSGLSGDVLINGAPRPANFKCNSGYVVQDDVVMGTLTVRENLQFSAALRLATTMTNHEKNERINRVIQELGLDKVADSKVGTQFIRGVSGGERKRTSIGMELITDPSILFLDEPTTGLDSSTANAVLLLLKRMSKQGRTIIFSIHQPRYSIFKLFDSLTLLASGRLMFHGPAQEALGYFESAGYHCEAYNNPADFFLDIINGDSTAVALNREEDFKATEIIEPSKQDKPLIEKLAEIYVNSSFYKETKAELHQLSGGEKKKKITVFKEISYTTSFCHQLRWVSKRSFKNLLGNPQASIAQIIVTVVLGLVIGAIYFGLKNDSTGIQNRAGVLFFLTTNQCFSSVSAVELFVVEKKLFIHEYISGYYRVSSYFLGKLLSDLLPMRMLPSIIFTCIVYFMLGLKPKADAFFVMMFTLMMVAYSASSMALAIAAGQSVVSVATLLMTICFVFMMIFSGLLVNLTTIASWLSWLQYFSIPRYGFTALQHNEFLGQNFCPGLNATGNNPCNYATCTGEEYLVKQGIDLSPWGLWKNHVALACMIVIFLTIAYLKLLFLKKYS
Nature of the assay: Inhibition of BCRP expressed in MDCK cells by pheophorbide A assay. It is filed as cell-based.

The target in assay [2] is T1, Broad substrate specificity ATP-binding cassette transporter ABCG2. Nature of the assay: Inhibition of BCRP expressed in MCF7 MX cells by Hoechst 33342 staining. The assay is classed as cell-based.
In assay [3] the target is Multidrug resistance-associated protein 1 (Homo sapiens, UniProt P33527). In words: Inhibition of MRP1 assessed as calcein AM accumulation by fluorescence assay.
Multidrug resistance-associated protein 1, sequence (P33527 whole entry): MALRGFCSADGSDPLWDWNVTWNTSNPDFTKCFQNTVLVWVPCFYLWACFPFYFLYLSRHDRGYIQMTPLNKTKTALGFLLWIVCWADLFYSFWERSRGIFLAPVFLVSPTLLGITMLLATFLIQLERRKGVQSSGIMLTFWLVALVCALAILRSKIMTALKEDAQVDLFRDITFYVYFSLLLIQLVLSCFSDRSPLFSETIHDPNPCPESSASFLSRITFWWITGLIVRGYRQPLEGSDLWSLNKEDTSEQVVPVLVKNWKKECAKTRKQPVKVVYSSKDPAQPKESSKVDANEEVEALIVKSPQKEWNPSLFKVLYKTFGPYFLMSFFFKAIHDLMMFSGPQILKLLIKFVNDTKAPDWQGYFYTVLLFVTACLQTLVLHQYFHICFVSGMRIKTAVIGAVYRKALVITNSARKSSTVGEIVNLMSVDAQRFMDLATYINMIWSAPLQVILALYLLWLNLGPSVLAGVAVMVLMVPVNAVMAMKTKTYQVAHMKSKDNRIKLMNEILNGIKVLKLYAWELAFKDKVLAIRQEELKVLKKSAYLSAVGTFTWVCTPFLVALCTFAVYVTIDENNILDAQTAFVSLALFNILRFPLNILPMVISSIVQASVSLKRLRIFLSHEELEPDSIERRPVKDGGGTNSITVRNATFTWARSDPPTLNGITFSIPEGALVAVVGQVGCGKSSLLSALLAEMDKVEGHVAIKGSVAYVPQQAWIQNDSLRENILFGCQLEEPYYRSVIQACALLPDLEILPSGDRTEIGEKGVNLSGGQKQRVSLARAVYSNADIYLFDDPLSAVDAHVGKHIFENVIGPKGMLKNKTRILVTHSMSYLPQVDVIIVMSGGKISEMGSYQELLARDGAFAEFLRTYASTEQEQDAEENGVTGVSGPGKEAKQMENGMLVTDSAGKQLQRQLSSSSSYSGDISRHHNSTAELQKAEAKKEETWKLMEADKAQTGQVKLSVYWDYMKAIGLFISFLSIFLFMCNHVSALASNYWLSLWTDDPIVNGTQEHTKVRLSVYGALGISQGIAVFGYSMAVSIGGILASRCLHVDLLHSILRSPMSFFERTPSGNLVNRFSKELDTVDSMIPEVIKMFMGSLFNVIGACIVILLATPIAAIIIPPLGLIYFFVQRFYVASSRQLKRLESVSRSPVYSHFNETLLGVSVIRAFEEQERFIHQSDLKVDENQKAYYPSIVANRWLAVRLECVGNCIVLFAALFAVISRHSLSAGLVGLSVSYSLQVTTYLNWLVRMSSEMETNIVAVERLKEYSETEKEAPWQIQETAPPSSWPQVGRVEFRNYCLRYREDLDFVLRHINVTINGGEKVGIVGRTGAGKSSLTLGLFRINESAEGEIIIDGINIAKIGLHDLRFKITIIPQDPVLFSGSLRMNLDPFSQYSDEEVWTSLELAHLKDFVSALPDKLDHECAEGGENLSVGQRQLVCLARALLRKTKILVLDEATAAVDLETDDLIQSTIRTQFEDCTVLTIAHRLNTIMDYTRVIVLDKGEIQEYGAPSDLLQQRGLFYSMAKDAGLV

A word on the IC50: it is the midpoint of a concentration-inhibition curve. Regarding `Nc1ccccc1NC(=O)Nc1ccc(CCN2CCc3ccccc3C2)cc1`, the values for the IC50 in assay [1] and in assay [2] were 74.1 µM and 102 µM, respectively.

`COc1ccc(C(=O)Nc2ccccc2C(=O)Nc2ccc(CCN3CCc4cc(OC)c(OC)cc4C3)cc2)cc1OC`: the figures for the IC50 in assay [1], in assay [3] and in assay [2] were 0.86 µM, greater than 20 µM and 0.93 µM, respectively.

Consider `COc1cc2c(cc1OC)CN(CCc1ccc(NC(=O)c3ccccc3NC(=O)Nc3ccc([N+](=O)[O-])cc3)cc1)CC2`, for which the IC50 is 0.5 µM in assay [1], greater than 20 µM in assay [3] and 0.54 µM in assay [2].

For `COc1cc2c(cc1OC)CN(CCc1ccc(NC(=O)c3ccccc3NC(=O)c3ccc([N+](=O)[O-])cc3)cc1)CC2`, the results for the IC50 in assay [1], in assay [3] and in assay [2] were 0.63 µM, greater than 20 µM and 0.69 µM, respectively.

Consider `COc1ccc(C(=O)Nc2ccccc2NC(=O)Nc2ccc(CCN3CCc4cc(OC)c(OC)cc4C3)cc2)cc1OC`, for which the values for the IC50 in assay [1] and in assay [2] were 6.98 µM and 10.2 µM, respectively.

Consider `COc1cc2c(cc1OC)CN(CCc1ccc(NC(=O)c3ccccc3[N+](=O)[O-])cc1)CC2`, for which the IC50 in assay [1] is 40 µM; in assay [2], 77.6 µM.

On to `COc1cc2c(cc1OC)CN(CCc1ccc(NC(=O)c3ccc(N)cc3)cc1)CC2`, for which the IC50 was 98.2 µM in assay [1] and 219 µM in assay [2].

With `COc1cc2c(cc1OC)CN(CCc1ccc(NC(=O)Nc3ccccc3N)cc1)CC2`, the figures for the IC50 in assay [1] and in assay [2] were 58.4 µM and 66.1 µM, respectively.

As to `COc1cc2c(cc1OC)CN(CCc1ccc(NC(=O)Nc3ccccc3[N+](=O)[O-])cc1)CC2`, the IC50 in assay [1] came out at 9.08 µM; in assay [2] it was 10.2 µM.

For the compound `COc1cc2c(cc1OC)CN(CCc1ccc(NC(=O)c3cc(OC)c(OC)cc3NC(=O)c3cnc4ccccc4c3)cc1)CC2`, the half-inhibitory concentration (IC50) in assay [1] is 0.85 µM; in assay [2] it was 0.68 µM.

Take `Nc1ccccc1C(=O)Nc1ccc(CCN2CCc3ccccc3C2)cc1`: the results for the IC50 in assay [1] and in assay [2] were 20.9 µM and 17.8 µM, respectively.

`COc1cc2c(cc1OC)CN(CCc1ccc(NC(=O)c3ccccc3N)cc1)CC2`: the IC50 in assay [1] came out at 20.7 µM; in assay [2] it was 32.4 µM.

As to `COc1cc2c(cc1OC)CN(CCc1ccc(NC(=O)c3ccc([N+](=O)[O-])cc3)cc1)CC2`, the figures for the IC50 in assay [1] and in assay [2] were 4.38 µM and 6.92 µM, respectively.

Take `COc1cc2c(cc1OC)CN(CCc1ccc(NC(=O)Nc3ccc([N+](=O)[O-])cc3)cc1)CC2`: the IC50 is 2.61 µM in assay [1] and 3.89 µM in assay [2].

Regarding `COc1cc2c(cc1OC)CN(CCc1ccc(NC(=O)Nc3ccc(N)cc3)cc1)CC2`, the IC50 in assay [1] turned out to be 46.4 µM; in assay [2], 74.1 µM.

`O=C(Nc1ccc(CCN2CCc3ccccc3C2)cc1)Nc1ccccc1[N+](=O)[O-]`: the IC50 in assay [1] amounted to 8.71 µM; in assay [2], 6.76 µM.

With `O=C(Nc1ccc(CCN2CCc3ccccc3C2)cc1)c1ccccc1[N+](=O)[O-]`, the IC50 in assay [1] is 45.7 µM; in assay [2], 51.3 µM.
